Read-outs that look alike come from different tables or passages of the source.
Key:
MAO [1] = assay: Inhibition of MAO - In vitro (14C p-tyramine substrate, partially purified rat brain mitochondria); format: biochemical; details: tested as hydrochloride salt, read-out: IC50 (MAO inhibitory activity - In vitro)
Source text: (A) The ability of a compound of Formula I or II to inhibit MAO can be determined in vitro by the method of A. Christmas et al, Br. J. Pharmacol. 45, 490 (1972) in partially purified mitochondria from rat brain using ^14 C p-tyramine as the substrate.

[2] = test system: heart rate response to p-tyramine; assay: Cheese effect: potentiation of heart-rate response to p-tyramine in rats; details: rat; for risk of producing the cheese effect (in words): in vivo
Experimental: The following test procedure can be employed to assess the potential of a compound of Formula I or II for producing the "cheese effect":
Rats are administered an intravenous injection of the test compound at various dosage levels, and 30 minutes later the rats are challenged with several intravenous or intraduodenal dodes of p-tyramine. The heart rate response is measured.

MAO [3] = assay: Inhibition of MAO - Ex vivo, rat (14C p-tyramine substrate); format: in vivo; details: for % Inhibition of MAO - Brain: 18 hr
Experimental: (§1) The ability of a compound of Formula I or II to inhibit MAO can be determined ex vivo by the following procedure:
The test compound is administered intraperitoneally (ip), intravenously (iv), or orally (po) to rats or mice and the animals are killed at various times after treatment. […] MAO activity is determined in the homogenates using ^14 C p-tyramine, as the substrate. […] Selectivity can be determined by repeating the above-described test using either ^14 C 5-hydroxytryptamine (for MAO-A) or ^14 C phenethylamine (for MAO-B) as the substrate for determining the % inhibition

MAO-B versus MAO-A = assay: Selectivity of MAO inhibitors - In vitro (14C 5-hydroxytryptamine for MAO-A, 14C phenethylamine for MAO-B); format: biochemical, rat; details: for Selectivity (ratio of inhibitory activity against MAO-B versus MAO-A): in vitro, rat brain mitochondria
Experimental: Mitochondria are prepared from rat brain by homogenation in phosphate buffer (0.1 M, pH 7.2) followed by differential centrifugation. The mitochondria are suspended in the same buffer, the test compound is added at the desired concentration, and the system is incubated. […] Christmas, et al, supra).
Selectivity is expressed as the ratio of the inhibitory activity against MAO-B versus the inhibitory activity against MAO-A.

MAO-A and MAO-B = details: literature; cited from earlier work
MAO [4] = assay: Inhibition of MAO - In vivo: change in levels of endogenous MAO substrates and metabolites in mouse brain; design: species or system mice
Experimental: The ability of a compound of Formula I or II to inhibit MAO can be determined in vivo in mice according to the following procedure, wherein changes in concentration of the endogenous MAO substrates and the metabolites thereof are assayed.
Mice are given an intraperitoneal injection of the test compound and 2 hours or 16 hours later the animals are killed. The levels of dopamine, dihydroxyphenylacetic acid (DOPAC), 5-hydroxytryptamine (5-HT), and 5-hydroxyindole-3-acetic acid (5-HIAA) in brain homogenates are determined by the method of J. Wagner et al, J. Chromatog. 164, 41 (1979) and P. Bey et al, Br. J. Pharmac., 70, 571 (1980).

MAO [5] = assay: Inhibition of MAO - Ex vivo, mouse (14C p-tyramine substrate); format: in vivo; details: 24 hr
Experimental: as §1
The test compound is administered intraperitoneally (ip), intravenously (iv), or orally (po) to rats or mice and the animals are killed at various times after treatment. The brain, heart, liver, or duodenum is removed and either a crude homogenate or a mitochondrial fraction, described in Example 28, Part A, is prepared. MAO activity is determined in the homogenates using ^14 C p-tyramine, as the substrate. Table III gives the results of the testing of certain compounds according to the above-described procedure. Selectivity can be determined by repeating the above-described test using either ^14 C 5-hydroxytryptamine (for MAO-A) or ^14 C phenethylamine (for MAO-B) as the substrate for determining the % inhibition

NCC(=CBr)c1ccccc1 [2-phenyl-3-bromoallylamine, 2-Phenyl-3-bromoallylamine]
IC50 (MAO [1]): 40000 nM

COc1ccc(/C(=C\F)CN)cc1 [(E)-2-(4'-Methoxy)phenyl-3-fluoroallyl amine]
Potentiation of heart-rate response to p-tyramine ([2]; dose 0.1 (iv), p-tyramine i.d.): 2.0 fold
Potentiation of heart-rate response to p-tyramine ([2]; dose 0.1 (iv), p-tyramine i.v.): 1.4 fold
Potentiation of heart-rate response to p-tyramine ([2]; dose 1.0 (iv), p-tyramine i.d.): 4.6 fold
Potentiation of heart-rate response to p-tyramine ([2]; dose 1.0 (iv), p-tyramine i.v.): 5.2 fold
risk of producing the cheese effect (in words) [2]: significantly decreased risk
% Inhibition of MAO - Duodenum (MAO [3]; 0.1 mg/kg iv, 2 hr): 80%
% Inhibition of MAO - Heart (MAO [3]; 0.1 mg/kg iv, 2 hr): 50%
% Inhibition of MAO - Liver (MAO [3]; 0.1 mg/kg iv, 2 hr): 30%
% Inhibition of MAO - Brain (MAO [3]; 1.0 mg/kg po): 86%
% Inhibition of MAO - Brain (MAO [3]; 5.0 mg/kg po): 97%

NCC(=C(F)F)c1ccccc1 [2-phenyl-3,3-difluoroallylamine, 2-Phenyl-3,3-difluoroallylamine]
IC50 (MAO [1]): 10000 nM

C=C(CN)c1cccc(OC)c1 [2-(3-methoxy)phenylallylamine, 2-(3'-Methoxy)phenylallylamine]
IC50 (MAO [1]): 10000 nM

COc1cccc(/C(=C\F)CN)c1 [(E)-2-(3'-Methoxy)phenyl-3-fluoroallylamine]
IC50 (MAO [1]): 5 nM
Selectivity (ratio of inhibitory activity against MAO-B versus MAO-A) (MAO-B versus MAO-A): 4
% Inhibition of MAO - Duodenum (MAO [3]; 0.1 mg/kg iv, 2 hr): 90%
% Inhibition of MAO - Heart (MAO [3]; 0.1 mg/kg iv, 2 hr): 98%
% Inhibition of MAO - Liver (MAO [3]; 0.1 mg/kg iv, 2 hr): 70%

NCC(=C(Br)Br)c1ccccc1 [2-phenyl-3,3-dibromoallylamine, 2-Phenyl-3,3-dibromoallylamine]
IC50 (MAO [1]): 500000 nM

C=C(CN)c1ccccc1 [2-phenylallylamine, 2-Phenylallylamine]
IC50 (MAO [1]): 400000 nM

Cc1cc(C(=O)NNCc2ccccc2)no1 [isocarboxazid]
preferential inhibition of MAO-A or MAO-B (in words) (MAO-A and MAO-B): not preferential in their action upon MAO

NNCCc1ccccc1 [phenelzine]
preferential inhibition of MAO-A or MAO-B (in words) (MAO-A and MAO-B): not preferential in their action upon MAO

NC/C(=C/F)c1cccc(C(F)(F)F)c1 [(E)-2-(3'-trifluoromethyl)phenyl-3-fluoroallylamine]
IC50 (MAO [1]): 7 nM

N[C@@H]1C[C@H]1c1ccccc1 (relative stereo) [tranyclcypromine]
preferential inhibition of MAO-A or MAO-B (in words) (MAO-A and MAO-B): not preferential in their action upon MAO

NC/C(=C/Cl)c1ccccc1 [(E)-2-phenyl-3-chloroallylamine, (E)-2-Phenyl-3-chloroallylamine]
IC50 (MAO [1]): 100000 nM

NC/C(=C\F)c1ccccc1 [(Z)-2-phenyl-3-fluoroallylamine, (Z)-2-Phenyl-3-fluoroallylamine]
IC50 (MAO [1]): 1000 nM

C=C(CN)c1cccc(O)c1 [2-(3-hydroxy)phenylallylamine, 2-(3'-Hydroxy)phenylallylamine]
IC50 (MAO [1]): 250 nM

COc1ccccc1/C(=C\F)CN [(E)-2-(2'-Methoxy)phenyl-3-fluoroallylamine]
IC50 (MAO [1]): 2500 nM

COc1ccc(C/C(=C\F)CN)cc1 [(E)-2-(4'-Methoxy)benzyl-3-fluoroallylamine]
IC50 (MAO [1]): 3000 nM
selectivity for MAO-B as compared to MAO-A (in words) (MAO-B versus MAO-A): marked selectivity for MAO-B as compared to MAO-A
Selectivity (ratio of inhibitory activity against MAO-B versus MAO-A) (MAO-B versus MAO-A): 500

NC/C(=C/F)Cc1ccccc1 [(E)-2-benzyl-3-fluoroallylamine, (E)-2-2-Benzyl-3-fluoroallylamine]
IC50 (MAO [1]): 7500 nM
selectivity for MAO-B as compared to MAO-A (in words) (MAO-B versus MAO-A): marked selectivity for MAO-B as compared to MAO-A
Selectivity (ratio of inhibitory activity against MAO-B versus MAO-A) (MAO-B versus MAO-A): 200

CCNC/C(=C/F)c1ccc(OC)c(OC)c1 [(E)-N-ethyl 2-(3',4'-dimethoxy)phenyl-3-fluoroallylamine]
IC50 (MAO [1]): 70000 nM

CCNC/C(=C/F)c1cccc(OC)c1 [(E)-N-Ethyl 2-(3'-methoxy)phenyl-3-fluoroallylamine]
IC50 (MAO [1]): 3000 nM

COc1ccc(/C(=C\F)CN)cc1OC [(E)-2-(3',4'-Dimethoxy)phenyl-3-fluoroallylamine]
Potentiation of heart-rate response to p-tyramine ([2]; dose 1.0 (iv), p-tyramine i.d.): 2.5 fold
Potentiation of heart-rate response to p-tyramine ([2]; dose 1.0 (iv), p-tyramine i.v.): 2.3 fold
risk of producing the cheese effect (in words) [2]: significantly decreased risk
IC50 (MAO [1]): 2500 nM
selectivity for MAO-B as compared to MAO-A (in words) (MAO-B versus MAO-A): marked selectivity for MAO-B as compared to MAO-A
Selectivity (ratio of inhibitory activity against MAO-B versus MAO-A) (MAO-B versus MAO-A): 1000
selectivity for MAO-B as compared to MAO-A (in words) (MAO-B versus MAO-A; listed as (E)-2-(3',4'-dimethoxyphenyl)-3-fluoroallylamine): selective inhibitors of MAO-B
% Inhibition of MAO - Brain (MAO [3]; 0.5 mg/kg po): 79%
% Inhibition of MAO - Duodenum (MAO [3]; 1.0 mg/kg iv, 2 hr): 40%
% Inhibition of MAO - Heart (MAO [3]; 1.0 mg/kg iv, 2 hr): 17%
% Inhibition of MAO - Liver (MAO [3]; 1.0 mg/kg iv, 2 hr): 58%
% Inhibition of MAO - Brain (MAO [3]; 10.0 mg/kg po): 93%
% Change (compared to control) - 5-HIAA (MAO [4]; 10 mg/kg ip, 16 hr): -8%
% Change (compared to control) - 5-HT (MAO [4]; 10 mg/kg ip, 16 hr): +31%
% Change (compared to control) - DOPAC (MAO [4]; 10 mg/kg ip, 16 hr): -62%
% Change (compared to control) - Dopamine (MAO [4]; 10 mg/kg ip, 16 hr): +18%
% Change (compared to control) - 5-HIAA (MAO [4]; 50 mg/kg ip, 16 hr): -32%
% Change (compared to control) - 5-HT (MAO [4]; 50 mg/kg ip, 16 hr): +122%
% Change (compared to control) - DOPAC (MAO [4]; 50 mg/kg ip, 16 hr): -85%
% Change (compared to control) - Dopamine (MAO [4]; 50 mg/kg ip, 16 hr): +22%

NC/C(=C/F)c1ccc(Cl)cc1 [(E)-2-(4'-Chloro)phenyl-3-fluoroallylamine]
IC50 (MAO [1]): 20 nM
Selectivity (ratio of inhibitory activity against MAO-B versus MAO-A) (MAO-B versus MAO-A): 10

NC/C(=C/F)c1ccccc1 [(E)-2-phenyl-3-fluoroallylamine, (E)-2-Phenyl-3-fluoroallylamine]
Potentiation of heart-rate response to p-tyramine ([2]; dose 0.1 (iv), p-tyramine i.d.): 9.1 fold
Potentiation of heart-rate response to p-tyramine ([2]; dose 0.1 (iv), p-tyramine i.v.): 8.4 fold
IC50 (MAO [1]): 700 nM
Selectivity (ratio of inhibitory activity against MAO-B versus MAO-A) (MAO-B versus MAO-A): 10
% Inhibition of MAO - Brain (MAO [5]; 0.5 mg/kg ip): 45%
% Inhibition of MAO - Heart (MAO [5]; 0.5 mg/kg ip): 91%
% Inhibition of MAO - Brain (MAO [5]; 1.0 mg/kg ip): 68%
% Inhibition of MAO - Heart (MAO [5]; 1.0 mg/kg ip): 97%
% Inhibition of MAO - Duodenum (MAO [3]; 0.1 mg/kg iv, 24 hr): 67%
% Inhibition of MAO - Heart (MAO [3]; 0.1 mg/kg iv, 24 hr): 85%
% Inhibition of MAO - Liver (MAO [3]; 0.1 mg/kg iv, 24 hr): 48%
% Change (compared to control) - 5-HIAA (MAO [4]; 1 mg/kg ip, 2 hr): -35%
% Change (compared to control) - 5-HT (MAO [4]; 1 mg/kg ip, 2 hr): +41%
% Change (compared to control) - DOPAC (MAO [4]; 1 mg/kg ip, 2 hr): -67%
% Change (compared to control) - Dopamine (MAO [4]; 1 mg/kg ip, 2 hr): +15%
% Change (compared to control) - 5-HIAA (MAO [4]; 10 mg/kg ip, 2 hr): -90%
% Change (compared to control) - 5-HT (MAO [4]; 10 mg/kg ip, 2 hr): +90%
% Change (compared to control) - DOPAC (MAO [4]; 10 mg/kg ip, 2 hr): -92%
% Change (compared to control) - Dopamine (MAO [4]; 10 mg/kg ip, 2 hr): +32%
% Change (compared to control) - 5-HIAA (MAO [4]; 100 mg/kg ip, 2 hr): -91%
% Change (compared to control) - 5-HT (MAO [4]; 100 mg/kg ip, 2 hr): +96%
% Change (compared to control) - DOPAC (MAO [4]; 100 mg/kg ip, 2 hr): -95%
% Change (compared to control) - Dopamine (MAO [4]; 100 mg/kg ip, 2 hr): +19%

NC/C(=C/F)c1cccc(O)c1 [(E)-2-(3'-hydroxy)phenyl-3-fluoroallylamine]
IC50 (MAO [1]): 50 nM
